{"source": "patent US7378387B2", "about": "“Method of suppressing immune response by reducing intracellular content of glutathione in macrophages and monocytes” (Ajinomoto Co., Inc., priority 1997, dated 2008)", "key": {"[1]": {"test_system": "peritoneal exudate cells (macrophages)", "experiment": "Induction of oxidative and reductive macrophages, monochlorobimane/ACAS (Example 1)", "format": "in vivo", "settings": "LPS 20 μg or lentinan 100 μg three times every two days into the abdominal cavity of a mouse", "experimental": "These were clarified by adhering peritoneal exudate cells to the plastic surface, then reacting the same with 10 μM of monochlorobimane at 37° C. for 30 minutes and conducting analysis with Adherent Cell Analyzing System (ACAS). The increase in the amounts of oxidative macrophages can easily be measured visually from the fact that almost no reaction product is observed, that is, gray or blue image is obtained, and the increase in the amounts of reductive macrophages from the fact that the red or yellow image is obtained, respectively."}, "IL-12": {"test_system": "IL-12", "experiment": "IL-12 production by MΦ induced by intraperitoneal injection of substances (Example 7)", "format": "in vivo, mouse", "experimental": "The amount of IL-12 was determined through bioassay using cells of human T cell strain 2D6 (J. Leukocyte Biology, vol. 61, p. 346, 1997).\n2D6 cells which had been incubated in an RPMI 1640 medium containing 500 pg/ml of recombinant human IL-12, 50 μM of 2-mercaptoethanol and 10% FCS (fetal calf serum) were moved to a tube, and centrifugally washed three times with the above-mentioned medium without IL-12 and cell density was adjusted to 1×10^5/ml. The cell suspension was added in an amount of 100 μl each to a 96-well flat bottom plate containing a sample serially diluted in advance with an RPMI 1640 medium containing 50 μM of 2-mercaptoethanol and 10% FCS in an amount of 100 μl each. Subsequently, the mixture was charged into a 5% […] incubator of 37° C., and incubated for 48 hours. For final 6 hours, ^3H-TdR was pulsed (a substance adjusted to 370 kBq/ml in an RPMI 1640 medium containing 50 μM of 2-mercaptoethanol and 10% FCS was added in an amount of 50 μl each). The cells a harvested, and the radioactivity was measured using a β counter (Matrix 96, supplied by Packard).\nIt was examined whether there is a difference in the IL-12 production between LNT-induced MΦ and LPS-induced MΦ. […] Next, the same analysis was conducted using MΦ induced by intraperitoneally injecting substances for changing the GSH content in cells."}, "[2]": {"test_system": "adjuvant-induced arthritis", "experiment": "Adjuvant-induced arthritis (AA) in rats, joint swelling (Examples 18 and 19)", "format": "in vivo, Lewis rats", "experimental": "Adjuvant-induced arthritis was triggered in Lewis rats in a conventional manner; and the effects of chemical agents were examined in the animals. Adjuvant-induced arthritis is well known as an experimental arthritis inducible in rats [Taurog et al., Meth. Enzymol. 162, 339-355 (1988)]. […] An adjuvant is administered at 1 mg/0.1 ml per rate at a site of caudal root. The edema reaches its peak about 2 to 3 weeks after the administration of the adjuvant. The edema is triggered by inflammatory infiltration of monocytes. Swollen joints are measured with a micrometer every day; comparing the diameters of the joints prior to and after adjuvant administration and after initiation of the treatment with chemical agents with the diameters of the joints in the control group, the effects of the chemical agents were expressed as the ratio in % of joint swelling in the experimental groups to joint swelling in the control group. The effects were determined on day 15 after adjuvant administration. The chemical agents were given, starting the day next to the day of adjuvant administration, and every 3 days thereafter.\nA single dose is 1 mg/kg for (NAC)2 and (NAC-OMe)2; 100 mg/kg for NAC; and 0.1 mg/kg for lentinan.\nAdjuvant-induced arthritis was induced in Lewis rats in a conventional manner. In the same manner as in Example 11, the effects of chemical agents were examined in these rats. The conditions were the same as described above."}, "[3]": {"test_system": "spontaneous onset of insulin-dependent diabetes mellitus", "experiment": "Onset of diabetes mellitus in NOD mice dosed at age 3 to 6 weeks (Example 23)", "format": "in vivo", "settings": "intraperitoneal, three times per week, nine times", "experimental": "NOD mice purchased from Nippon Clair, Co. were naturally mated together. Among the off spring mice, a colony of NOD mice with a high frequency of the spontaneous onset of insulin-dependent diabetes mellitus was established. Female NOD mice from the colony were used for the present experiment. […] Urine glucose was detected, using Uropaper (BM Test Glucose 5000, manufactured by Yamanouchi Pharmaceuticals, Co. Ltd.). Chemical agents were administered intraperitoneally, unless otherwise stated. […] (NAC)2 and (NAC-OMe)2 were at a single dose of 20 μg/animal; and NAC and GSHOEt were at a single dose of 2 μg/animal; and a single dose of lentinan was 0.1 mg/kg."}, "[4]": {"test_system": "spontaneous onset of insulin-dependent diabetes mellitus", "experiment": "Onset of diabetes mellitus in NOD mice dosed at age 3 to 6 and 9 to 11 weeks (Example 24)", "format": "in vivo", "settings": "route not given, 0.1 mg/kg; 15 times in total; judged on week 22; saline 60", "from_the_text": "NOD mice purchased from Nippon Clair, Co. were naturally mated together. Among the off spring mice, a colony of NOD mice with a high frequency of the spontaneous onset of insulin-dependent diabetes mellitus was established. Female NOD mice from the colony were used for the present experiment. […] Urine glucose was detected, using Uropaper (BM Test Glucose 5000, manufactured by Yamanouchi Pharmaceuticals, Co. Ltd.). The onset was judged on week 22."}, "[5]": {"test_system": "spontaneous onset of insulin-dependent diabetes mellitus", "experiment": "Onset of diabetes mellitus in NOD mice dosed at age 9 to 11 weeks (Example 25)", "format": "in vivo", "settings": "route not given, nine times, judged on week 22, saline 67", "from_the_text": "NOD mice purchased from Nippon Clair, Co. were naturally mated together. Among the off spring mice, a colony of NOD mice with a high frequency of the spontaneous onset of insulin-dependent diabetes mellitus was established. Female NOD mice from the colony were used for the present experiment. Chemical agents were orally or intraperitoneally administered to the NOD mice aged 9 to 11 weeks three times per week, in total nine times; and based on the test results of urine glucose, positive or negative, the onset of diabetes mellitus was followed once per week. Urine glucose was detected, using Uropaper (BM Test Glucose 5000, manufactured by Yamanouchi Pharmaceuticals, Co. Ltd.). The onset was judged on week 22; the doses were the same as in Example 24."}}}
{"substance": "Lentinan [reference compound]", "values": [{"measurement": "type of macrophages induced (GSH by monochlorobimane, ACAS)", "setting": "[1]", "value": "reductive macrophages were induced"}, {"measurement": "IL-12 production", "setting": "IL-12; MΦ induced by intraperitoneal injection of the substance, stimulation with LPS and IFNγ", "value": "1,312 pg/ml"}, {"measurement": "IL-12 production of substance-induced MΦ, without DEM or IL-4", "setting": "IL-12; baseline values of the DEM and IL-4 experiments", "value": 828, "unit": "pg/mL"}, {"measurement": "Ratio in % of joint swelling in experimental groups to joint swelling in control group", "setting": "[2]; Table 3, day 15 after adjuvant, every 3 days, single dose 1 mg/kg (NAC)2 and (NAC-OMe)2, 100 mg/kg NAC, 0.1 mg/kg lentinan", "value": 52, "unit": "%"}, {"measurement": "Ratio in % of joint swelling in experimental groups to joint swelling in control group", "setting": "[2]; Table 4, intravenous", "value": 50, "unit": "%"}, {"measurement": "Frequency (%) of onset of diabetes mellitus, on age 18 weeks", "setting": "[3]; saline 50", "value": 10, "unit": "%"}, {"measurement": "Frequency (%) of onset of diabetes mellitus, on age 22 weeks", "setting": "[3]; saline 80", "value": 20, "unit": "%"}, {"measurement": "Frequency (%) of onset of diabetes mellitus", "setting": "[4]", "value": 0, "unit": "%"}, {"measurement": "Frequency (%) of onset of diabetes mellitus", "setting": "[5]", "value": 50, "unit": "%"}]}
